The results in this text go back to patent publication US10548894B2, “Combination therapy” (Array BioPharma Inc., priority 2013, dated 2020).

Molecules are shown by their SMILES. Read-outs that look alike come from different tables or passages of the source. Bounds are passed on as bounds.

One assay deals with COLO-800. As to the kind of experiment: CellTiter-Glo proliferation assay 72 hrs, with or without FGF2. The class given is cell-based. As to conditions: Homo sapiens. The procedure: (§1) All cell lines were purchased from ATTC (SK-MEL-5, SK-MEL-24, UACC-62, COLO 741, COLO-800, WM-266-4, Colo205, LS411N, SW 1417), ECACC (MDST8), DSMZ (CL-34) and NCI (LOX IMVI). […] Cell lines were cultured in 37° C. and 5% CO2 incubator and expanded in T-75 flasks. In all cases cells were thawed from frozen stocks, expanded through passage using 1:3 dilutions, counted and assessed for viability using a ViCell counter (Beckman-Coulter), prior to plating in 96-well or 6-well plates. To split and expand cell lines, cells were dislodged from flasks using 0.25% Trypsin-EDTA (GIBCO, Catalog number 25200). All cell lines were determined to be free of mycoplasma contamination as determined by a PCR detection methodology performed at Idexx Radii (Columbia, Mo., USA) and correctly identified by detection of a panel of SNPs.
(§2) The Compound of Formula (I) and Compound H dissolved in 100% DMSO (Cellgro, catalog number 25-290-CQC) at concentrations of 10 mM and stored at −20° C. until use. Compounds were arrayed in 2 ml deep 96-well plates (Greiner bio-one, catalog number 780271) serially diluted 3-fold seven times yielding concentration ranges from 22 nM to 16200 nM. Recombinant Human FGF basic was purchased from R&D system (Catalog number 233-FB), and reconstituted at 50 μg/ml in sterile PBS. It was used at a fixed concentration 100 ng/ml in all experiments.
(§3) For CellTiter-Glo™ assays, cells were dispensed into tissue culture treated 96-well plates (Costar, catalog number 3904) with a final volume of 80 μL of medium and at density of 3000 cells per well. 12 to 24 hrs after plating, 20 μL of each compound dilution series were transferred to plates containing the cells, resulting in compound concentration ranges of 2700 nM to 3.7 nM by 3-fold dilutions and a final DMSO concentration of 0.16%. The total volume in each well was […]. Plates were incubated for 72 hrs and the effects of compounds on cell proliferation was determined using the CellTiter-Glo™ Luminescent Cell Viability Assay (CTG, Promega) and a Victor™ X4 plate reader (Perkin Elmer). For real-time growth assays cells were seeded into xCELLigence E-plates (Roche catalogue number 05232368001) at a density of 4000 cells per well in a total of 90 μl of media and 24 hrs after plating, 11 μl of media with or without compound was added to the wells. 2-4 replicate wells were plated for all cell lines and treatment groups with the exception of LGX818+FGF2 treated COLO 741 cells (N=1). Where indicated final concentrations of compounds and growth factor were 1 uM for Compound H, 100 ng/ml for FGF2, and either 100 nM (SK-MEL-5) or 500 nM (COLO 741) for the Compound of Formula (I). Cells were continuously monitored every two hours for seven days with the xCELLigence real-time impedance based cell analyzer. Impedance was measured using the electrodes on the E-plates, with increasing surface area coverage of cells creating greater electrode impedance. […] In all cases cell index values were normalized to a timepoint immediately following the addition of compound.
(§4) To determine whether FGFRs can rescue a subset of BRAFV600E mutant melanoma cell lines treated with the Compound of Formula (I), its anti-proliferative effects were examined in eleven T1799 mutant BRAF cell lines either in the presence or absence of the FGFR-activating ligand FGF2. […] Thus, the presence of FGF2 is able to rescue a set of BRAFV600E melanoma-derived cell lines from the anti-proliferative effects of the B-Raf inhibitor of Formula (I). Furthermore, similar effects are also observed in BRAFV600E mutant cell lines derived from CRC tumors.
(§5) Mutant (mut) and wildtype (wt) status was determined from published data. […] PTEN mut designations represent a summary call based on mutation, gene copy number, and mRNA expression information for the PTEN gene.

For the next assay, the system named is MDST8. Described as above. As to conditions: MDST8 (V600K). The class given is cell-based. As for the experimental part:
as §1, §2, §3, §4, §5

For assay [1], the system named is A-375 cells expressing mutant MEK1P124L. As to the kind of experiment: ATP-based CTG (Cell Titer Glo) cell viability assay, 72 h. As to conditions: Homo sapiens, A-375 MEK1P124L, single agent. The procedure:
(§6) Compound stocks are prepared in DMSO at a final concentration of 10 mM. Working stocks are serially diluted in the appropriate cell culture medium in 3-fold increments to achieve final assay concentrations ranging from 2.7 μM to 1.2 nM.
(§7) A-375 and WM-266-4 cells were purchased from American Type Culture Collection (ATCC). The A-375 cells were cultured in DMEM medium (ATCC) and the WM-266-4 cells were cultured in EMEM medium (ATCC) both supplemented with 10% fetal bovine serum (Gibco) and incubated at 37° C./5% CO2. The cell lines engineered to express commonly occurring alleles indicative of resistance were acquired from Novartis-Emeryville. These resistant models include, A-375 cells expressing mutant MEK1P124L, truncated p61-BRAFV600E, or mutant NRASQ61K, and WM-266-4 cells expressing mutant MEK1C121S, truncated p61-BRAFV600E, or mutant NRASQ61K. These cells were cultured in the appropriate parental medium with selection marker G418 and in the presence of 5 uM LFE158 (MEK mutants) or LIH720 (truncated p61-BRAFV600E).
(§8) For screening, cells were seeded in 80 ul of medium in 384-well plates (Thermo Scientific, cat#4332) at 500 (A-375) or 750 (WM-266-4) cell densities per well using a MultiDrop Combi (Thermo-Fisher) with an 8-channel standard cassette. To promote an even distribution of cells across the entire well, cells were briefly centrifuged at 1000 RPM and incubated at room temperature 30 minutes. All plates were incubated at 37° C., 5% CO2 for 24 h prior to compound addition. Compound stock was freshly prepared in the appropriate culture medium, and added using a PAA robot equipped with a 200n1 pin tool. In a minimum of three replicate wells, single agent and combination effects after 72 hours, were assessed by both quantification of cellular ATP levels via Cell Titer Glo (Promega) according to the manufacturer's protocol and by microscopy imaging. For imaging, cells were fixed to the plates and permeabilized with a solution of 10% PFA, 0.3% TX-100 in PBS via a WellMate dispenser with controlled dispensing speeds. Cell nuclei were stained with Hoechst 33342 (H3570, Invitrogen), and all necessary washing steps were performed by a BioTek washer.
(§9) Data comprised triplicate measurements for each treatment (compound) condition, 42 replicates of DMSO-treated wells, and duplicates of Staurosporin-treated wells. The data was normalized to the median of the DMSO measurements and summarized by calculating the median of the triplicates. Data was imported into Chalice to calculate compound synergies.

For assay [2], the system named is WM-266-4 cells expressing mutant MEK1C121S. Described as above. As to conditions: Homo sapiens, WM-266-4 MEK1C121S, single agent. The procedure:
as §6, §7, §8, §9

With `COC(=O)N[C@@H](C)CNc1nccc(-c2cn(C(C)C)nc2-c2cc(Cl)cc(NS(C)(=O)=O)c2F)n1` [Compound of Formula (I)], the IC50 in the assay with COLO-800 (COLO-800, with 100 ng/ml FGF2, read-out: LGX818 + FGF2 IC50) is 0.012 µM; in the assay on COLO-800 (COLO-800, without FGF2, read-out: LGX818 IC50), 0.009 µM; with MDST8 (with 100 ng/ml FGF2, read-out: LGX818 + FGF2 IC50) it was at least 10 µM; with MDST8 (without FGF2, read-out: LGX818 IC50), 0.141 µM; in assay [1], 0.333 µM; in assay [2], 0.035 µM.
